The source of these data is patent US20250304571A1, “BIOLOGICALLY ACTIVE COMPOUNDS AND METHODS THEREOF” (Suzhou Keen Therapeutics Co., Ltd., priority 2022, published 2025).

Holding throughout (assay type): cell-based
The subject of assay [1] is 786-O cells. In words: Anti-proliferation activity in 786-O cells in the presence of a ferroptosis inhibitor (Ferrostatin-1 or Liproxstatin-1). The settings on record: Homo sapiens, 786-0, 72 h, no ferroptosis inhibitor, read-out: IC50, No Ferroptosis Inhibitor (Table 5). On the procedure: In one assessment, cells (KP4, 786-0 and HT-1080) were seeded (700 cells/well, 1000 cells/well or 3000 cells/well) in 384-well or 96-well plates and incubated at 37° C./5% CO2 for 22-24 hours. A series of 8 different concentrations of compound stocks were created by 5-fold serial dilution in DMSO. These compounds were further diluted in culture media and were then added to cells (final concentrations: 100 μM, 20 μM, 4 μM, 0.8 μM, 0.16 μM, […].). After 72 hours of incubation, 30 μL of CellTiter Glo reagent (Promega) was added to each well and luminescence was measured after 10 minutes using SpectraMax M5/M5e (Molecular Devices). Luminescence from cells treated with DMSO alone was set as background and % of inhibition was calculated as follows: […]
Anti-proliferation activity of various compounds was also tested in the presence of an ferroptosis inhibitor, Ferrostatin-1 (2 μM) or Liproxstatin-1 (2 μM). Certain results are provided in Table 4 and Table 5 as examples. “A” indicates an IC50≤100 nM; “B” indicates an IC50 of >100 nM and ≤500 nM; “C” indicates an IC50>500 nM and ≤5 μM; and “D” indicates an IC50>5 μM.

Assay [2] has as its system 786-O (renal cell carcinoma) cells. In words: Cell viability (CellTiter Glo) assay, inhibition of 786-O cell proliferation. The settings on record: read-out: IC50, inhibition of 786-O cell proliferation. A general note: In ATP-based viability assays light output follows the ATP content of the culture.
Assay [3] deals with KP4 (pancreatic ductal adenocarcinoma) cells. Briefly: Cell viability (CellTiter Glo) assay, inhibition of KP4 cell proliferation. Particulars: Homo sapiens, read-out: IC50, inhibition of KP4 cell proliferation.
The mark [4] stands for this setting: Homo sapiens, 786-0, 786-O cells, 72 hours, CellTiter Glo.
The mark [5] stands for this setting: KP-4, KP4 cells, 72 hours, CellTiter Glo.

pIC50: −log10 of the molar value. Like-named read-outs stand apart in the source and are kept apart here.

For `N=C(OCc1nc(N)nc(Nc2ccc(Oc3ccccc3)cc2)n1)N1CCCCC1C(F)(F)F` (centres unmarked) [Compound F12], the pIC50 in assay [1] and in assay [2] (setting [4]) was over 7.00 each time.

Regarding `N=C(OCc1nc(Nc2ccc(Oc3ccccc3)cc2)c2cc[nH]c2n1)N1CCCCC1` [Compound D5], the pIC50 in assay [3] (setting [5]) and in assay [2] (setting [4]) was 6.30 to 7.00 in each case. With `CN1CCN(C(=N)OCc2nc(N)nc(Nc3ccc(Oc4ccccc4)cc3)n2)CC1` [Compound F7], the pIC50 in assay [3] (setting [5]) and in assay [2] (setting [4]) was 6.30 to 7.00 throughout. For the compound `CCCC[C@H]1Cc2cc(OC)ccc2[C@H](c2ccc(F)cc2)N1C(=O)COC(=N)N1CCN(C)C(=O)C1` [Compound A2], the pIC50 was under 5.30 in assay [3] (setting [5]) and 5.30 to 6.30 in assay [2] (setting [4]).

Consider `CN(C)C(=N)OCc1nc(N)cc(Nc2ccc(Oc3ccccc3)cc2)n1` [Compound F36], for which the pIC50 in assay [3] (KP-4, 72 h) is 5.30 to 6.30.

On to `N=C(OCc1nc(N)nc(Nc2ccc(Oc3ccccc3)cc2)n1)N1CCCCC1` [Compound F4, (4-amino-6-((4-phenoxyphenyl)amino)-1,3,5-triazin-2-yl)methyl piperidine-1-carbimidate], for which, in assay [3] (setting [5]), the pIC50 was over 7.00. On to `Nc1nc(CO/C(=N\C2CCCCC2)NC2CCCCC2)nc(Nc2ccc(Oc3ccccc3)cc2)n1` [Compound F23], for which the pIC50 in assay [3] (KP-4, 72 h) is 5.30 to 6.30; in assay [2] (Homo sapiens, 786-0, 72 h), 6.30 to 7.00.

In the case of `CN(C)C(=N)OCc1ncc2ccn(-c3ccc(Oc4ccccc4)cc3)c2n1` [Compound D1], in assay [3] (setting [5]), the pIC50 was 6.30 to 7.00.

For `N=C(OCc1nc(N)c2c(n1)N(c1cnc(N3C4CCC3COC4)nc1)C(=O)C21CCCC1)N1CCC[C@@H]1C(F)(F)F` [Compound E93], the pIC50 in assay [1] and in assay [2] (setting [4]) was over 7.00 throughout. Take `CN(C)C(=N)OCc1nc(N)c2c(n1)N(c1ccc(Oc3ccccc3)cc1)CC2(C)C` [Compound E1]: the pIC50 is over 7.00 in assay [1] and over 7.00 in assay [2] (Homo sapiens, 786-0, 72 h).

Consider `C[C@@H]1CN(C(=N)OCc2nc(N)nc(Nc3ccc(Oc4ccccc4)cc3)n2)C[C@H](C)N1C(=O)OC(C)(C)C` [Compound F32], for which, in assay [3] (setting [5]), the pIC50 is over 7.00. With `CN1CCN(C(=N)OCc2nc(Nc3ccc(Oc4ccccc4)cc3)c3cc[nH]c3n2)CC1=O` [Compound D7], the pIC50 in assay [3] (setting [5]) and in assay [2] (setting [4]) was 5.30 to 6.30 each time. With `CNc1nc(COC(=N)N2CCOCC2C(F)(F)F)nc2c1C1(CCCC1)C(=O)N2c1cnc(N2C[C@@H](C)O[C@@H](C)C2)nc1` (some centres unmarked) [Compound E97], the pIC50 in assay [1] and in assay [2] (setting [4]) was 6.30 to 7.00 each time. `CCCC[C@H]1Cc2cc(OC)ccc2[C@H](c2ccc(F)cc2)N1C(=O)COC(=N)N(C)C` [Compound A1]: the pIC50 in assay [3] (setting [5]) was 6.30 to 7.00.

With `N=C(OCc1nc(Nc2ccc(Oc3ccccc3)cc2)c2cc[nH]c2n1)N1CCCC(F)(F)C1` [Compound D8], the pIC50 was 5.30 to 6.30 in assay [3] (setting [5]) and 6.30 to 7.00 in assay [2] (setting [4]). In the same order, the values of `N=C(OCc1nc(Nc2ccc(Oc3ccccc3)cc2)c2cc[nH]c2n1)N1CCOCC1` [Compound D4] are 5.30 to 6.30 and 6.30 to 7.00. As for `CC(C)/N=C(/NC(C)C)OCc1nc(N)nc(Nc2ccc(Oc3ccccc3)cc2)n1` [Compound F24], the pIC50 is 5.30 to 6.30 in assay [3] (setting [5]) and 6.30 to 7.00 in assay [2] (setting [4]). Turning to `CN(C)C(=N)OCc1nccc(Nc2ccc(Oc3ccccc3)cc2)n1` [Compound F35], the pIC50 in assay [3] (setting [5]) was 6.30 to 7.00; in assay [2] (setting [4]), 5.30 to 6.30. For `CN(C)C(=N)OCc1nc(Nc2ccc(Oc3ccccc3)cc2)c2cn[nH]c2n1` [Compound D10], in assay [3] (setting [5]), the pIC50 was 5.30 to 6.30. Consider `CN1CCN(C(=N)OCc2nc(N)nc(Nc3ccc(Oc4ccccc4)cc3)n2)CC1=O` [Compound F33], for which the pIC50 in assay [3] (setting [5]) was 6.30 to 7.00. With `N=C(N)OCc1nc(N)nc(Nc2ccc(Oc3ccccc3)cc2)n1` [Compound F26], the pIC50 in assay [3] (KP-4, 72 h) was under 5.30. As to `CN(C)C(=N)OCc1nccc(N2CCCCC2c2ccc(Oc3ccccc3)cc2)n1` (centres unmarked) [Compound F38], the pIC50 in assay [3] (setting [5]) was under 5.30. Take `N=C(OCc1ncc2c(n1)N(c1ccc(Oc3ccccc3)cc1)C(=O)C21CC1)N1CCCCC1C(F)(F)F` (centres unmarked) [Compound E12]: the pIC50 in assay [2] (setting [4]) was 6.30 to 7.00. Take `CNc1nc(COC(=N)N2CCC[C@@H]2C(F)(F)F)nc2c1C(C)(C)C(=O)N2c1cnc(N2C[C@@H](C)O[C@@H](C)C2)c(F)c1` [Compound E36]: the pIC50 in assay [2] (setting [4]) is over 7.00.

For `N=C(OCc1nc(N)c2c(n1)N(c1cnc(C(F)(F)F)nc1)C(=O)C21CCCC1)N1CCC[C@@H]1C(F)(F)F` [Compound E90], the pIC50 in assay [2] (setting [4]) is 6.30 to 7.00.

As for `CNc1nc(COC(=N)N2CCC[C@@H]2C(F)(F)F)nc2c1C(C)(C)C(=O)N2c1cc(F)c2c(c1)nc(C)n2C(C)C` [Compound E32], in assay [2] (786-O cells, 72 hours, CellTiter Glo), the pIC50 was over 7.00. Turning to `CC#CC(C)(C)N(C)C(=N)OCc1nc(N)c2c(n1)N(c1ccc(N3CCOCC3)cc1)C(=O)C2(C)C` [Compound E27], the pIC50 in assay [2] (setting [4]) is 5.30 to 6.30.

On to `CC(C)Nc1nc(COC(=N)N2CCCC2C(F)(F)F)nc2c1C(C)(C)C(=O)N2c1ccc(N2CCOCC2)cc1` (centres unmarked) [Compound E176, (4-(Isopropylamino)-5,5-dimethyl-7-(4-morpholinophenyl)-6-oxo-6,7-dihydro-5H-pyrrolo[2,3-d]pyrimidin-2-yl)methyl 2-(trifluoromethyl)pyrrolidine-1-carbimidate], for which, in assay [2] (Homo sapiens, 786-0, 72 h), the pIC50 was over 7.00. In the case of `CN(C)C(=N)OCc1nc(N)nc(Nc2ccc3ccccc3c2)n1` [Compound F5], the pIC50 in assay [3] (setting [5]) and in assay [2] (setting [4]) was 6.30 to 7.00 throughout.

On to `CNc1nc(COC(=N)N2CC(F)(F)C[C@H]2C)nc2c1C(C)(C)C(=O)N2c1ccc(N2C[C@@H](C)O[C@@H](C)C2)nc1` [Compound E115], for which the pIC50 in assay [2] (setting [4]) was 6.30 to 7.00. Consider `CC1(C)CN(c2ccc(Oc3ccccc3)cc2)c2nc(COC(=N)N3CCCC34COC4)ncc21` [Compound E11], for which, in assay [2] (setting [4]), the pIC50 is 5.30 to 6.30. Regarding `CCN(CC(F)(F)F)C(=N)OCc1nccc(Nc2ccc(N3CCOCC3)nc2)n1` [Compound F49], the pIC50 in assay [2] (setting [4]) is 5.30 to 6.30.

For the compound `CCN(CC(F)(F)F)C(=N)OCc1nc(N)nc(Nc2ccc(Oc3ccccc3)cc2)n1` [Compound F45], the pIC50 in assay [2] (setting [4]) is over 7.00. On to `[2H]C([2H])(OC(=N)N1CCCCC1C(F)(F)F)c1nc(N)c2c(n1)N(c1ccc(OC3CCCCC3)cc1)CC2(C)C` (centres unmarked) [Compound E155], for which, in assay [2] (setting [4]), the pIC50 was over 7.00. In the case of `CC(C)Oc1ccc(Nc2nc(N)nc(COC(=N)N(C)C)n2)cc1` [Compound F1], the pIC50 in assay [3] (setting [5]) was 5.30 to 6.30. For `CNc1nc(COC(=N)N2CC(F)(F)C[C@H]2C)nc2c1C(C)(C)C(=O)N2c1ccc(N2CCOCC2)cc1` [Compound E42], the pIC50 in assay [2] (setting [4]) is 6.30 to 7.00. Turning to `CC1(C)C(=O)N(c2cc(F)c3c(c2)CCO3)c2nc(COC(=N)N3CCC[C@@H]3C(F)(F)F)nc(N)c21` [Compound E65], the pIC50 in assay [2] (setting [4]) is over 7.00. The same measure, in the same setting: in the case of `Cn1c(OCc2nc(N)nc(Nc3ccc(Oc4ccccc4)cc3)n2)nc(Br)c1Br` [Compound F2] it was under 5.30; in that of `CNc1nc(COC(=N)N2CCC[C@@H]2C(F)(F)F)nc2c1C1(CCCC1)C(=O)N2c1cnc(N2CCC(F)(F)C2)nc1` [Compound E83], over 7.00; in that of `CC1(C)C(=O)N(c2cc(F)c3c(c2)CCCO3)c2nc(COC(=N)N3CCC[C@@H]3C(F)(F)F)nc(NCC(F)(F)F)c21` [Compound E51], over 7.00. Still for that read-out and setting: in the case of `CC1(C)C(=O)N(c2ccc(N3CCOCC3)cc2)c2nc(COC(=N)N3CCC[C@@H]3C(F)(F)F)nc(NCC(F)(F)F)c21` [Compound E48] it was over 7.00; in that of `N=C(OCc1ncc2c(n1)N(c1ccc(OC3CCOCC3)nc1)CC21CC1)N1CC(F)(F)C1` [Compound E146], 5.30 to 6.30. As for `N=C(OCc1nc(N)nc(Nc2ccc(Oc3ccccc3)cc2)n1)N1CCS(=O)(=O)CC1` [Compound F27], in assay [3] (setting [5]), the pIC50 was 6.30 to 7.00.

For `CCCC[C@H]1Cc2cc(OC)ccc2[C@H](c2ccc(F)cc2)N1C(=O)CO/C(=N\C(C)C)NC(C)C` [Compound A4], the pIC50 in assay [2] (setting [4]) was 5.30 to 6.30. Take `CC(C)N(CC(F)(F)F)C(=N)OCc1ncc2c(n1)N(c1ccc(C3CCCCC3)nc1)C(=O)C21CC1` [Compound E160]: in assay [2] (setting [4]), the pIC50 is 5.30 to 6.30. Regarding `C=CCNc1nc(COC(=N)N2CCC[C@@H]2C(F)(F)F)nc2c1C(C)(C)C(=O)N2c1ccc(N2CCOCC2)cc1` [Compound E56], in assay [2] (setting [4]), the pIC50 was over 7.00.

Regarding `N=C(OCc1nc(N)c2c(n1)N(c1cnc(N3CC(F)(F)C3)nc1)C(=O)C21CCCC1)N1CCC[C@@H]1C(F)(F)F` [Compound E85], the pIC50 in assay [2] (setting [4]) was over 7.00.

In the case of `C[C@@H]1CN(c2ncc(N3C(=O)C(C)(C)c4c(NC5CCC5)nc(COC(=N)N5CCOCC5C(F)(F)F)nc43)cn2)C[C@H](C)O1` (some centres unmarked) [Compound E219], the pIC50 in assay [2] (setting [4]) was 6.30 to 7.00.
